Test results taken from patent publication US20240159675A1, “METHODS AND DEVICES FOR RATIOMETRIC CHARACTERIZATION OF FLUORESCENT PARTICLES” (NANOTEMPER TECHNOLOGIES GMBH, priority 2021, published 2024).
Like-named read-outs stand apart in the source and are kept apart here. {Cy5} = Cy5 dye label

Experiments:
[1] = system: complementary 11-mer DNA strand labeled with Cy5; test: Kd-over-time curve of DNA hybridization, dual-emission configuration with IR laser (Example 10); assay type: binding
Description: For the DNA hybridization, a 16-point 1-to-1 dilution series of the unlabeled 11-mer (sequence: 5′ CCT GAA GTC C 3′) was prepared. The complementary 11-mer (sequence: 5′ GGA CTT CAG G 3′) was fluorescently labeled at its 5′ end with Cy5 and added in equal amounts to the dilution series to obtain a final sample concentration of 10 nM. The highest concentration of the unlabeled 11-mer corresponded to 100 μM.
(§1) At the timepoint 0 s, an IR laser was switched on. The response of the fluorescence intensity was simultaneously measured for 6 s (aptamer), respectively 21 s (DNA hybridization).
(§2) From above it is evident that information on the binding interaction (e.g. Kd) can be derived from any “vertical” slice in time along the ratiometric traces, when the method of the present invention is used in combination with fast IR laser heating. A new type of curve, which can be described as Kd-over-time curve can be generated. From this curve not only information on the thermodynamics but also on the binding kinetics of the interaction can be determined. In particular, if the equilibration kinetics of an interaction is slower than the heating with the IR laser, the Kd-over-time curve will show a characteristic lag.
(§3) The Kd-over-time curves provided in FIG. 23 reveal three different interactions with different dissociation constants Kd and binding kinetics.

Cy5-labeled DNA aptamer [2] = test: Ratiometric measurement with a standard fluorescence microplate-reader, AMP dilution series (Example 1); assay type: binding; conditions: 20 nM Cy5-labeled DNA aptamer, read-out: dissociation constant (Kd), midpoint of dose-response curve
Description: (§4) A 14-point 1-to-1 dilution series of unlabeled AMP was prepared. The DNA aptamer was fluorescently labeled with Cy5 and added in equal amounts to the AMP dilution series to obtain a final sample concentration of 20 nM. The highest concentration of AMP corresponded to 5 mM. For measurements with a standard fluorescence microplate-reader (CLARIOstar, BMG Labtech) 95 […] of the sample were loaded into a micro-well plate.
(§5) For the microplate-reader measurements, the sample was excited at a wavelength of 590 nm and the emission was first detected at a wavelength of 628 nm to 652 nm. Then, the sample was again excited at the 590 nm wavelength and the emission was detected at a wavelength of 665 nm to 725 nm. Three subsequent fluorescence intensity measurements of the dilution series were run.
In order to characterize the interaction with the fluorescence microplate-reader, the ratio between the fluorescence intensities per well was calculated manually by using a commercially available calculation tool (Microsoft Excel). The fluorescence detected at the higher wavelength was divided by the fluorescence detected at the lower wavelength. The sigmoidal dose-response curve provided in FIG. 10A starts at a ratio value of approx. 0.95 and ends at a ratio value of approx. 0.90. The midpoint, which corresponds to the dissociation constant (Kd) of the interaction, lies at approx. 20-30 μM. […]

Cy5-labeled DNA aptamer [3] = test: Ratiometric measurement with the dual-emission configuration, AMP dilution series (Example 1); assay type: binding; conditions: 20 nM Cy5-labeled DNA aptamer, read-out: Kd of the interaction
Description: as §4, §5
When using lower sample concentrations, i.e. 250 pM, for the ratiometric measurement according to the present invention, the signal-to-noise ratio (S/N) is still very good (19.8) and a Kd of the interaction can be easily determined (FIG. 10C).

[4] = molecular target: Cy5-labeled DNA aptamer for adenosine; test: Kd-over-time curve, dual-emission configuration with IR laser, AMP (Example 10); assay type: binding; conditions: FIG. 23A
Description: For the aptamer, a 12-point 1-to-1 dilution series of unlabeled AMP was prepared. The DNA aptamer was fluorescently labeled with Cy5 and added in equal amounts to the AMP dilution series to obtain a final sample concentration of 20 nM. The highest concentration of AMP corresponded to 2 mM.
as §1, §2, §3

lysozyme [5] = molecular target: T1, lysozyme (Gallus gallus, UniProt P00698); test: Emission spectrum of fluorescently labeled lysozyme alone and in complex with NAG3; assay type: binding; conditions: corresponding to the spectral shift (Table 3)
T1 sequence (P00698 19-147): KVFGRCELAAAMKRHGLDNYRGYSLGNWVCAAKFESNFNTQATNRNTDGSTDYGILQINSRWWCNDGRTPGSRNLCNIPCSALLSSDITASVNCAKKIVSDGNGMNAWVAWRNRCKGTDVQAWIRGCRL
Source text: (§6) Shifts of 3 nm and of approx. 500 pm correspond to relative changes in the fluorescence ratio of about 37.3% and 5.5%, respectively (Table 3).

lysozyme [6] = molecular target: T1, lysozyme; test: Ratio 350 nm/330 nm of intrinsic tryptophan fluorescence during thermal melting ramp 35° C. to 95° C.; assay type: binding; conditions: increasing / very high concentrations of NAG3, unlabeled lysozyme
Description: To monitor the temperature of denaturation, each sample is heated from 35° C. to 95° C. […] This shift cannot be used to extract the dissociation constant of this interaction.
The alterations in the fluorescence spectrum are independent of the nature of the fluorescent label, i.e. they equally appear in intrinsic as well as extrinsic fluorescent labels. However, the extend of the alterations in the fluorescence spectrum may be increased for certain classes of labels.

streptavidin = streptavidin (Streptomyces avidinii, UniProt P22629); test: Emission spectrum of fluorescently labeled streptavidin alone and in complex with biotin; assay type: binding
Chain of streptavidin (P22629 25-183, species assumed): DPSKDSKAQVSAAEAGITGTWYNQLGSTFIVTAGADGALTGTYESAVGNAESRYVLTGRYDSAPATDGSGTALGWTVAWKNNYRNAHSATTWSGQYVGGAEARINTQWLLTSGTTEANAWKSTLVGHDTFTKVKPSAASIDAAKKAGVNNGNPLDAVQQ
Source text: as §6

[7] = molecular target: fluorescently labeled streptavidin (Streptomyces avidinii, UniProt P22629); test: Ratiometric dual-emission dose-response, biotin dilution series (Example 4); assay type: binding; conditions: 20 nM streptavidin
Chain of fluorescently labeled streptavidin (P22629 25-183, species assumed): as above
Description: A 12-point 1-to-1 dilution series of unlabeled biotin was prepared. […] The highest concentration of biotin corresponded to 500 nM.
As evident from the dose-response curve shown in FIG. 17, the ratio changed from a value of approx. 2.2 to approx. 1.2 when streptavidin is unbound or in complex with biotin, respectively. Since the target concentration is much higher than the Kd, a characteristic kink at the stoichiometry point at a concentration of 80 nM biotin can be observed.

[8] = Fluorescence ratio of labeled protein over time at room temperature (Example 9); assay type: physicochemical; conditions: 20 nM labeled protein, 0, 3, 8 and 19 minutes
Description: The labeled protein was then diluted to a concentration of 20 nM and loaded into a polymer-coated borosilicate glass capillary (Monolith NT.115 Premium Capillaries, MO-K025, NanoTemper Technologies).
The sample was excited at a wavelength of 591 nm. […] Measurements were performed directly after dilution (t=0 min) and again after 3, 8 and 19 minutes inside the capillary.

For “11-mer complementary DNA strands: unlabeled 11-mer (5′ CCT GAA GTC C 3′) titrated against complementary 11-mer (5′ GGA CTT CAG G 3′) labeled at 5′ end with Cy5 (chain 1 CCTGAAGTCC; chain 2 GGACTTCAGG; chain 1: DNA, backbone not given here; chain 2: DNA, 5' {Cy5}, backbone not given here)”, the koff ([1]; measured at 22° C., FIG. 23C) was “smaller than 0.01 s^−1”, the Kd ([1]; measured at 22° C., FIG. 23C, read-out: Kd) was about 0.005 µM and the koff ([1]; measured at 32° C., estimated, FIG. 23B) was “approx. 1 s^−1”. It also gave a Kd ([1]; sample temperature 22° C., FIG. 24B, read-out: Kd value at start of IR laser on-time) of about 0.01 µM and a Kd ([1]; temperature after IR laser heating approx. 32° C., FIG. 24B, read-out: Kd value after IR laser heating) of about 0.5 µM.
With `Nc1ncnc2c1ncn2[C@@H]1O[C@H](COP(=O)(O)O)[C@@H](O)[C@H]1O` [AMP, adenosine monophosphate] the Kd (Cy5-labeled DNA aptamer [2]) was 20 to 30 µM, the Kd (Cy5-labeled DNA aptamer [3]) was 39.3 µM and the Kd ([4]; Kd-over-time curve) was about 30 µM. The koff ([4]; estimated from Kd-over-time curve) was “greater than 10 s^−1”.
In the case of `CC(=O)N[C@H]1[C@H](O[C@H]2[C@H](O)[C@@H](NC(C)=O)C(O)O[C@@H]2CO)O[C@H](CO)[C@@H](O[C@@H]2O[C@H](CO)[C@@H](O)[C@H](O)[C@H]2NC(C)=O)[C@@H]1O` (stereo partly drawn) [NAG3, Tri-N-acetyl-D-glucosamine], the “relative change in the fluorescence ratio” value (lysozyme [5]) is reported as about 5.5% and the “effect on thermal denaturation of lysozyme” value (lysozyme [6]) is reported as “thermal stabilization”.
With `O=C(O)CCCC[C@@H]1SC[C@@H]2NC(=O)N[C@@H]21` [biotin] the “relative change in the fluorescence ratio” value (streptavidin; corresponding to the spectral shift (Table 3)) was “about 37.3%”, the “shift of the maximum emission peak wavelength” value (streptavidin; streptavidin 200 nM, biotin 2 μM, excitation 605 nm) was 3 nm and the “stoichiometry point (kink in dose-response curve)” value ([7]; concentration of biotin) was 80 nM. The “ratio 670 nm/650 nm of streptavidin in complex with biotin” value ([7]; unbound approx. 2.2) was “approx. 1.2”.
In the case of “Mitogen-activated protein kinase 14 (p38-α): Mitogen-activated protein kinase 14, fluorescently labeled with Protein Labeling Kit RED-NHS 2nd Generation”, the “stability at room temperature (fluorescence ratio over about 20 minutes)” value [8] is reported as “not stable at room temperature but gradually denatures”.
